Counter-ions that a name gives are not always drawn. Like-named read-outs stand apart in the source and are kept apart here.
Molecular target: T1, LTD4 receptor (Cavia porcellus, UniProt Q2NNR5)
T1 construct: guinea-pig lung membranes; from tissue; host or cells: guinea-pig lung membranes
T1 sequence (Q2NNR5 1-340): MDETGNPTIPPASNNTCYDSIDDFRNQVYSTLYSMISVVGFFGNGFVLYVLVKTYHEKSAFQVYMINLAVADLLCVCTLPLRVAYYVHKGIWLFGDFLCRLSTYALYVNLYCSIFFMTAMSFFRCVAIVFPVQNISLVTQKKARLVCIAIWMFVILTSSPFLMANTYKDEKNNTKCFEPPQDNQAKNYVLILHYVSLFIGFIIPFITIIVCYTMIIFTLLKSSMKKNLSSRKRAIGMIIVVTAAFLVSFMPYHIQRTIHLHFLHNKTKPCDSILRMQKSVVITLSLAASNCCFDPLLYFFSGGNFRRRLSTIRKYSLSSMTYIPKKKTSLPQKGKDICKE
Assay: [3H]LTD4 competition binding to guinea-pig lung membranes
Details: negative logarithm of molar concentration, read-out: pIC50 for [3H]LTD4 binding (converted)
Description: It is of importance to investigate the receptor binding properties of leukotriene antagonists in relation to their inhibition of smooth muscle contraction. Receptor binding studies may be performed with guinea-pig lung membranes in a direct competition assay between a leukotriene antagonist and [^3 H]LTD4 for binding to the LTD4 receptor ^10,^11. […] These values indicate that the affinities of the compounds for the LTD4 receptor are very high, also in the presence of albumin.

[1] = presence of 0.1% human serum albumin

| IC50 (absence of human serum albumin) [nM] | IC50 [1] [nM] | Structure (SMILES) |
| --- | --- | --- |
| 2.51 | 20 | O=C(O)[C@H](O)[C@H](Nc1cccc(/C=C/c2ccc3ccccc3n2)c1)c1ccccc1 (relative stereo) [Example 17, E-(2R,3R;2S,3S)-3-phenyl-N-3-[(2-quinolyl)-2-ethenyl]-phenyl isoserine, sodium salt] |
| 2 | 6.31 | O=C(O)[C@H](O)[C@H](Nc1cccc(/C=C/c2ccc3ccc(Cl)cc3n2)c1)c1ccccc1 (relative stereo) [Example 6, E-(2R,3R;2S,3S)-N-3-[2-(7-chloroquinolyl)-2-ethenyl]-phenyl-3-phenyl isoserine, sodium salt] |
